Data reported in patent EP1189615B1, “ENDOPARASITICIDAL SYNERGISTIC COMBINATION CONTAINING CYCLIC DEPSIPEPTIDES AND PIPERAZINES” (Bayer HealthCare AG, priority 1999, dated 2000).
Read-outs that look alike come from different tables or passages of the source.

Assays:
Heterakis spumosa = conditions: Maus
Excerpt: (§1) Die Durchführung der biologischen Tests erfolgte entsprechend den bekannten Verfahren (Plant et. al. Pesticide Science, 1996, 48, S. 351 ff.).

Nematospiroides dibius = conditions: Maus
Excerpt: as §1

Trichinella spiralis = conditions: in-vitro
Excerpt: as §1

## C1CNCCN1 [Piperazin]
Heterakis spumosa; Dosis 4 x 100 mg/kg
  Wirkung: 0 (Wurmreduktion <50 %)
Heterakis spumosa; Dosis 4 x 250 mg/kg
  Wirkung: 1 (Wurmreduktion 50-75 %)
Nematospiroides dibius; Dosis 2 x 2000 mg/kg
  Wirkung: 2 (Wurmreduktion 75-90 %)
Nematospiroides dibius; Dosis 4 x 1000 mg/kg
  Wirkung: 1 (Wurmreduktion 50-75 %)
Trichinella spiralis; Konzentration 500 µg/ml
  Wirkung: 0
Trichinella spiralis; Konzentration 1000 µg/ml
  Wirkung: 0-1
